Test results reported in PubChem BioAssay (NCI).
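Cultured in 96-well plates, cells were exposed to test compound for 48 hours across five concentrations. GI50 is the concentration that inhibits growth by half. TGI is the concentration that stops growth completely.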

Experiments:
Experiment in all cases: NCI tumour cell line growth inhibition, 48 h
T-47D breast = tested on: T-47D breast
SR leukemia = tested on: SR leukemia
HCC-2998 colon = tested on: HCC-2998 colon
MCF7 breast = tested on: MCF7 breast
HS 578T breast = tested on: HS 578T breast
DU-145 prostate = tested on: DU-145 prostate
UACC-257 melanoma = tested on: UACC-257 melanoma
OVCAR-4 ovarian = tested on: OVCAR-4 ovarian
CAKI-1 renal = tested on: CAKI-1 renal
ACHN renal = tested on: ACHN renal
U251 CNS = tested on: U251 CNS
SF-268 CNS = tested on: SF-268 CNS
HOP-92 NSCLC = tested on: HOP-92 NSCLC
RPMI-8226 leukemia = tested on: RPMI-8226 leukemia
SNB-19 CNS = tested on: SNB-19 CNS
HT29 colon = tested on: HT29 colon
K-562 leukemia = tested on: K-562 leukemia
M14 melanoma = tested on: M14 melanoma
COLO 205 colon = tested on: COLO 205 colon
A498 renal = tested on: A498 renal
HOP-62 NSCLC = tested on: HOP-62 NSCLC
BT-549 breast = tested on: BT-549 breast
SNB-75 CNS = tested on: SNB-75 CNS
CCRF-CEM leukemia = tested on: CCRF-CEM leukemia
HCT-15 colon = tested on: HCT-15 colon
786-0 renal = tested on: 786-0 renal
NCI-H460 lung = tested on: NCI-H460 lung
NCI-H23 lung = tested on: NCI-H23 lung
OVCAR-5 ovarian = tested on: OVCAR-5 ovarian
NCI-H522 lung = tested on: NCI-H522 lung
MALME-3M melanoma = tested on: MALME-3M melanoma
SW-620 colon = tested on: SW-620 colon
UO-31 renal = tested on: UO-31 renal
OVCAR-8 ovarian = tested on: OVCAR-8 ovarian
PC-3 prostate = tested on: PC-3 prostate
UACC-62 melanoma = tested on: UACC-62 melanoma
NCI-H226 lung = tested on: NCI-H226 lung
MDA-MB-231 breast = tested on: MDA-MB-231 breast
SK-OV-3 ovarian = tested on: SK-OV-3 ovarian
LOX IMVI melanoma = tested on: LOX IMVI melanoma
TK-10 renal = tested on: TK-10 renal
HL-60(TB) leukemia = tested on: HL-60(TB) leukemia
SK-MEL-2 melanoma = tested on: SK-MEL-2 melanoma
SF-295 CNS = tested on: SF-295 CNS
HCT-116 colon = tested on: HCT-116 colon
SN12C renal = tested on: SN12C renal
SF-539 CNS = tested on: SF-539 CNS
NCI/ADR-RES ovarian = tested on: NCI/ADR-RES ovarian
SK-MEL-5 melanoma = tested on: SK-MEL-5 melanoma
MOLT-4 leukemia = tested on: MOLT-4 leukemia
KM12 colon = tested on: KM12 colon
MDA-MB-435 = tested on: MDA-MB-435
IGROV1 ovarian = tested on: IGROV1 ovarian
RXF 393 renal = tested on: RXF 393 renal
A549 NSCLC = tested on: A549 NSCLC
SK-MEL-28 melanoma = tested on: SK-MEL-28 melanoma

O=C(Nc1cccc(-n2cc(-c3ccncc3)c(-c3ccc(O)c(Cl)c3)n2)c1)c1cc(C(F)(F)F)cc(C(F)(F)F)c1
GI50 (T-47D breast): 2.28 µM | TGI (T-47D breast): 30.8 µM | GI50 (SR leukemia): 1.43 µM | TGI (SR leukemia): 5.68 µM | GI50 (HCC-2998 colon): 3.06 µM | TGI (HCC-2998 colon): > 50 µM | GI50 (MCF7 breast): 2.17 µM | TGI (MCF7 breast): > 50 µM | GI50 (HS 578T breast): 5.19 µM | TGI (HS 578T breast): > 50 µM | GI50 (DU-145 prostate): 12.6 µM | TGI (DU-145 prostate): > 50 µM | GI50 (UACC-257 melanoma): 16.1 µM | TGI (UACC-257 melanoma): > 50 µM | GI50 (OVCAR-4 ovarian): 3.31 µM | TGI (OVCAR-4 ovarian): > 50 µM | GI50 (CAKI-1 renal): 2.52 µM | TGI (CAKI-1 renal): > 50 µM | GI50 (ACHN renal): 2.79 µM | TGI (ACHN renal): > 50 µM | GI50 (U251 CNS): 2.54 µM | TGI (U251 CNS): > 50 µM | GI50 (SF-268 CNS): 7.26 µM | TGI (SF-268 CNS): > 50 µM | GI50 (HOP-92 NSCLC): 0.822 µM | TGI (HOP-92 NSCLC): 4.15 µM | GI50 (RPMI-8226 leukemia): 3.31 µM | TGI (RPMI-8226 leukemia): 33.1 µM | GI50 (SNB-19 CNS): 12.8 µM | TGI (SNB-19 CNS): > 50 µM | GI50 (HT29 colon): 5.15 µM | TGI (HT29 colon): 31.4 µM | GI50 (K-562 leukemia): 2.57 µM | TGI (K-562 leukemia): > 50 µM | GI50 (M14 melanoma): 3.3 µM | TGI (M14 melanoma): > 50 µM | GI50 (COLO 205 colon): 9.82 µM | TGI (COLO 205 colon): 23.5 µM | GI50 (A498 renal): 9.2 µM | TGI (A498 renal): > 50 µM | GI50 (HOP-62 NSCLC): 17.5 µM | TGI (HOP-62 NSCLC): > 50 µM | GI50 (BT-549 breast): 4.34 µM | TGI (BT-549 breast): 46.6 µM | GI50 (SNB-75 CNS): 2.35 µM | TGI (SNB-75 CNS): > 50 µM | GI50 (CCRF-CEM leukemia): 2.21 µM | TGI (CCRF-CEM leukemia): > 50 µM | GI50 (HCT-15 colon): 2.39 µM | TGI (HCT-15 colon): > 50 µM | GI50 (786-0 renal): 3.93 µM | TGI (786-0 renal): 18.3 µM | GI50 (NCI-H460 lung): 1.9 µM | TGI (NCI-H460 lung): > 50 µM | GI50 (NCI-H23 lung): 5.15 µM | TGI (NCI-H23 lung): > 50 µM | GI50 (OVCAR-5 ovarian): 8.33 µM | TGI (OVCAR-5 ovarian): 37.7 µM | GI50 (NCI-H522 lung): 1.56 µM | TGI (NCI-H522 lung): 12.3 µM | GI50 (MALME-3M melanoma): 9.79 µM | TGI (MALME-3M melanoma): 41.9 µM | GI50 (SW-620 colon): 12.2 µM | TGI (SW-620 colon): > 50 µM | GI50 (UO-31 renal): 4.15 µM | TGI (UO-31 renal): > 50 µM | GI50 (OVCAR-8 ovarian): 4.88 µM | TGI (OVCAR-8 ovarian): > 50 µM | GI50 (PC-3 prostate): 2.17 µM | TGI (PC-3 prostate): > 50 µM | GI50 (UACC-62 melanoma): 10.6 µM | TGI (UACC-62 melanoma): > 50 µM | GI50 (NCI-H226 lung): 10.3 µM | TGI (NCI-H226 lung): > 50 µM | GI50 (MDA-MB-231 breast): 0.889 µM | TGI (MDA-MB-231 breast): 2.17 µM | GI50 (SK-OV-3 ovarian): 22.8 µM | TGI (SK-OV-3 ovarian): > 50 µM | GI50 (LOX IMVI melanoma): 1.86 µM | TGI (LOX IMVI melanoma): > 50 µM | GI50 (TK-10 renal): 10.9 µM | TGI (TK-10 renal): > 50 µM | GI50 (HL-60(TB) leukemia): 9.4 µM | TGI (HL-60(TB) leukemia): 27.4 µM | GI50 (SK-MEL-2 melanoma): 9.33 µM | TGI (SK-MEL-2 melanoma): 34 µM | GI50 (SF-295 CNS): 2.14 µM | TGI (SF-295 CNS): 34.2 µM | GI50 (HCT-116 colon): 2.88 µM | TGI (HCT-116 colon): > 50 µM | GI50 (SN12C renal): 7.04 µM | TGI (SN12C renal): > 50 µM | GI50 (SF-539 CNS): 4.78 µM | TGI (SF-539 CNS): 38.9 µM | GI50 (NCI/ADR-RES ovarian): 4.72 µM | TGI (NCI/ADR-RES ovarian): > 50 µM | GI50 (SK-MEL-5 melanoma): 4.61 µM | TGI (SK-MEL-5 melanoma): 16.9 µM | GI50 (MOLT-4 leukemia): 2.88 µM | TGI (MOLT-4 leukemia): > 50 µM | GI50 (KM12 colon): 2.05 µM | TGI (KM12 colon): 12.5 µM | GI50 (MDA-MB-435): 4.43 µM | TGI (MDA-MB-435): > 50 µM | GI50 (IGROV1 ovarian): 11.2 µM | TGI (IGROV1 ovarian): > 50 µM | GI50 (RXF 393 renal): 1.25 µM | TGI (RXF 393 renal): 9.1 µM | GI50 (A549 NSCLC): 2.41 µM | TGI (A549 NSCLC): > 50 µM | GI50 (SK-MEL-28 melanoma): 10.3 µM | TGI (SK-MEL-28 melanoma): > 50 µM
